The values that follow come from patent EP0404945A1 (priority 1989, dated 1990).

One data set has as its system Colibacillus. The experiment in a line: microbe, parasite or virus in culture. The format is cell-based. As to conditions: read-out: Efficiency of the preparation, % Colibacillus.
For another data set, the system named is Staphylococcus aureus. The experiment in a line: microbe, parasite or virus in culture. The note with it: read-out: Efficiency of the preparation, % Staphylococcus aureus. The format is cell-based.
The subject of data set [1] is Infectant of poliomyelitis.
For another data set, the system named is ascarid ovi. As to the kind of experiment: animal or person. The format is in vivo, pig.ascarid. The note with it: read-out: Death of ascarid ovi, % Tests laboratory.
For another data set, the system named is Alternaria radicina. Type of data set: cell-based.
A further data set concerns Aspergillus niger. The format is cell-based.
For a further data set, the system named is Fusarium oxysporum. The format is cell-based.
A further data set relates to Helminthosporum saturem. Type of data set: cell-based.
The next data set relates to Venturia inaequalis. Type of data set: cell-based.
The next data set deals with Penicillium sporum. The format is cell-based.
For another data set, the system named is Candida albicans. The experiment in a line: microbe, parasite or virus in culture. Type of data set: cell-based.
The test system of a further data set is Candida tropicalis. The experiment in a line: microbe, parasite or virus in culture. Type of data set: cell-based.
In a further data set the test system is Virus of hepatitis B. As to the kind of experiment: microbe, parasite or virus in culture. The note with it: 0.5 h, read-out: Death of viruses (%) at 30 minutes exposure, Virus of hepatitis B.
For data set [2], the system named is houseflies. As to conditions: house fly, in vivo.
For data set [3] the following is noted: in vivo; cited from earlier work.
The subject of data set [4] is virus of influenza, type A, (H1N1). As to the kind of experiment: microbe, parasite or virus in culture. The note with it: H1N1, 0.5 h, read-out: Death of viruses (%) at 30 minutes exposure, Virus of influenza A.
Data set [5] deals with houseflies. The experiment in a line: whole plant or invertebrate. As to conditions: Musca domestica.
Where [6] appears, read: 2 h, read-out: Death of test fungi, % to the control, Candida albicans 2 hrs.
Where [7] appears, read: 20 h, read-out: Death of test fungi, % to the control, Candida albicans 20 hrs.
[8] abbreviates: 2 h, read-out: Death of test fungi, % to the control, Candida tropicalis 2 hrs.
[9] abbreviates: 20 h, read-out: Death of test fungi, % to the control, Candida tropicalis 20 hrs.
Setting [10] is: 72 h, read-out: Death of flies, % after 72 hours.

Where two headings read alike, the source gives them in different places.

On to `O=[N+]([O-])c1ccc(C(O)C(CCl)NP(=O)(O)O)cc1` (stereo not drawn) [Example 2, 1-para-nitrophenyl-1--chloro-3-propanolamidophosphoric acid], for which the killing at 0.5 % with Colibacillus and with Staphylococcus aureus was 100% each time. Further, the “Death of viruses (%) at 60 minutes exposure, Infectant of poliomyelitis” value in [1] is 60%. Moreover, the killing at 3 % with ascarid ovi amounted to 100%. The “Mycelium growth inhibition, % to the control, Alternaria radicina” value in the data set with Alternaria radicina is given as 60%. Besides, the “Mycelium growth inhibition, % to the control, Aspergillus niger” value in the data set with Aspergillus niger turned out to be 100%. Also, in the data set with Fusarium oxysporum, the “Mycelium growth inhibition, % to the control, Fusarium oxisporum” value turned out to be 69%. The “Mycelium growth inhibition, % to the control, Helminthosporum saturem” value in the data set with Helminthosporum saturem is 88%. Also, the “Mycelium growth inhibition, % to the control, Venturia inaequalis” value in the data set with Venturia inaequalis stood at 64%. For the same compound, in the data set with Penicillium sporum, the “Mycelium growth inhibition, % to the control, Penicillium sporum” value is 68%. Also, the killing at 0.05 % in the data set with Candida albicans (setting [6]) worked out at 99%; in the data set with Candida albicans (setting [7]) it was 100%; with Candida tropicalis (setting [8]) it was 90%; with Candida tropicalis (setting [9]), 100%.

As for `O=[N+]([O-])c1ccc(C(Cl)C(CCl)NP(=O)(O)O)cc1` (stereo not drawn) [Example 3], the killing at 0.5 % in the data set with Colibacillus and with Staphylococcus aureus was 100% each time. Besides, the killing at 1 % in the data set with Virus of hepatitis B was 100%. For the same compound, the “Death of viruses (%) at 60 minutes exposure, Infectant of poliomyelitis” value in data set [1] amounted to 80%. Further, the killing at 3 % in the data set with ascarid ovi was found to be 100%. Also, in the data set on Alternaria radicina, the “Mycelium growth inhibition, % to the control, Alternaria radicina” value worked out at 80%. For the same compound, in the data set on Aspergillus niger, the “Mycelium growth inhibition, % to the control, Aspergillus niger” value was determined as 100%. For the same compound, the “Mycelium growth inhibition, % to the control, Fusarium oxisporum” value in the data set on Fusarium oxysporum came to 68%. Besides, the “Mycelium growth inhibition, % to the control, Helminthosporum saturem” value with Helminthosporum saturem was found to be 100%. The “Mycelium growth inhibition, % to the control, Venturia inaequalis” value in the data set with Venturia inaequalis was 98%. The “Mycelium growth inhibition, % to the control, Penicillium sporum” value with Penicillium sporum is reported as 100%. Besides, the killing at 0.05 % in the data set on Candida albicans (setting [6]) was determined as 100%; in the data set on Candida albicans (setting [7]) it was 100%; in the data set with Candida tropicalis (setting [8]) it was 99%; with Candida tropicalis (setting [9]), 100%.

Regarding `COP(=O)(OC)C(O)C(Cl)(Cl)Cl` (stereo not drawn) [Known insecticidal preparation, O,O-Dimethyl-(1-hydroxy-2,2,2-tri-chloroethyl)-phosphonate], the “Death of flies, % Tests laboratory” value in the data set with houseflies [2] turned out to be 90%. For the same compound, the “Death of flies, % after 48 hours” value in the data set with houseflies [2] (48 h) stood at 81%. The “Death of flies, % after 72 hours” value in the data set with houseflies [2] (72 h) came out at 84%. The LD50 in [3] was 225 - 1,200 mg/kg.

Take `O=S(=O)(NCl)c1ccccc1` [Known preparation]: the values for the killing at 1 % (with Virus of hepatitis B; in data set [4]) were 50% and 25%, respectively. Also, the mortality at 3 % in the data set on houseflies [5] (24 h, read-out: Death of flies, % after 24 hours) was 86%; with houseflies [5] (setting [10]), 92%. For the same compound, the mortality at 2 % with houseflies [5] (48 h, read-out: Death of flies, % after 48 hours) amounted to 81%; in the data set with houseflies [5] (setting [10]) it was 84%.
